The assay has as its target Tumor necrosis factor (Homo sapiens, UniProt P01375). As to the kind of experiment: Inhibition of human TNF-alpha secretion stimulated by LPS.

Sequence of Tumor necrosis factor (P01375 whole entry): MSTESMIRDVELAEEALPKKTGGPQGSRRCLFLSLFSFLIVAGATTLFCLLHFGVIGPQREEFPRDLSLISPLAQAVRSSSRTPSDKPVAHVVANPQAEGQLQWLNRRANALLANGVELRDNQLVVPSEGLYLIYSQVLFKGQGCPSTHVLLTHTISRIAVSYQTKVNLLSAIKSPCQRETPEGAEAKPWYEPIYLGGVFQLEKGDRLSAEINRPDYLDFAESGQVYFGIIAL

As for `Cc1ccc(Cl)cc1Nc1cc(Cl)c2nonc2c1[N+](=O)[O-]`, a half-maximal effect (EC50) was put at 300 nM.

For the origin of these results see BindingDB's records for PubMed 33569941 (n/a, 2021).
